Earlier results on 1 compound are cited in US9655910B2, “Compositions and methods for treating addiction” (BODYBIO INC., priority 2014, dated 2017).

Structures are written as SMILES.

In one data set the target is CB1 cannabinoid receptor (Rattus norvegicus, UniProt P20272).
For the next data set, the target named is CB2 receptor (Homo sapiens, UniProt P34972). The following applies: compared with CB1.
CB2 receptor, sequence (P34972 whole entry): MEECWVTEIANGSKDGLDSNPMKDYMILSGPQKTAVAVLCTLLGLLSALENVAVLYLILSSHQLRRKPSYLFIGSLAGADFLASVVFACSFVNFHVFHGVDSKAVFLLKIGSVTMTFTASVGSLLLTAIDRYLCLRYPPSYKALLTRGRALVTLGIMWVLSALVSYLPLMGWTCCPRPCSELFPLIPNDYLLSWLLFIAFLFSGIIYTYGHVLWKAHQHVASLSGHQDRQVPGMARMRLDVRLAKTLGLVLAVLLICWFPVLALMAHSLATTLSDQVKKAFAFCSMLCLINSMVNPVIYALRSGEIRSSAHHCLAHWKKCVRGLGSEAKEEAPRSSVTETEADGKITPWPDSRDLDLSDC

CB1 cannabinoid receptor, sequence (P20272 whole entry): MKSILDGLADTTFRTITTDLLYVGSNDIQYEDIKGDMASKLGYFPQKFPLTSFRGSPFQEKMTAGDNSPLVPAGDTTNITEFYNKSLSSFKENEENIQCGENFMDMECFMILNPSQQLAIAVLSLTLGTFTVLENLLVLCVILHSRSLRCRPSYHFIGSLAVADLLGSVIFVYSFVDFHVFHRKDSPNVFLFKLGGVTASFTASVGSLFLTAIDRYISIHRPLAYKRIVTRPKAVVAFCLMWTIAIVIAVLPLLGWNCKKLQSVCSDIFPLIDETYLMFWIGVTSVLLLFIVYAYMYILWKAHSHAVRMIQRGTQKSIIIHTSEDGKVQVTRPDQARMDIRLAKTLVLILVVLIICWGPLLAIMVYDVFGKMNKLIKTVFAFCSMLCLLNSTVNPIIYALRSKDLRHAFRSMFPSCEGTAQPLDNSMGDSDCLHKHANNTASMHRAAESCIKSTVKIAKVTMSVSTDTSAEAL

On to `CCCCCC=CCC=CCC=CCC=CCCCCOC(CO)CO` [Noladin ether, 2-arachidonyl glyceryl ether], for which the Ki at CB1 cannabinoid receptor is 0.0212 µM. The “binding to the CB2 receptor” value on CB2 receptor is reported as “only weakly”. Besides, the “effects caused in mice” value in the data set on mice was “sedation, hypothermia, intestinal immobility, and mild antinociception”.

By Ki is commonly meant a measure of affinity in units of concentration, obtained from inhibition or displacement.
